From the NIST ThermoML archive (doi:10.1016/j.fluid.2018.08.016)
Numbers after ± are expanded uncertainties.

Experiments:
[1] = Molar enthalpy of transition or fusion; details: DSC
[2] = for thermal conductivity: 101.33 kPa, Modified transient plane source method; for Normal melting temperature: Crystal 1, DTA; for Triple point temperature: DSC

| Structure (SMILES) | Molar enthalpy of transition or fusion ([1]; Crystal 1) [kcal/mol] | Molar enthalpy of transition or fusion ([1]; Crystal 2) [kcal/mol] | thermal conductivity ([2]; 297.6 K, Crystal 2) [W/m/K] | thermal conductivity ([2]; 302.4 K, Crystal 2) [W/m/K] | thermal conductivity ([2]; 333 K, Liquid) [W/m/K] | thermal conductivity ([2]; 337.7 K, Liquid) [W/m/K] | thermal conductivity ([2]; 353 K, Liquid) [W/m/K] | Normal melting temperature [2] [°C] | Triple point temperature ([2]; Crystal 2) [K] | thermal conductivity ([2]; 297.7 K, Crystal 2) [W/m/K] | thermal conductivity ([2]; 302.3 K, Crystal 2) [W/m/K] | thermal conductivity ([2]; 348 K, Liquid) [W/m/K] | thermal conductivity ([2]; 343.1 K, Liquid) [W/m/K] | other results |
| --- | --- | --- | --- | --- | --- | --- | --- | --- | --- | --- | --- | --- | --- | --- |
| CCCCCCCCCCCCCCCCCCCCCC [docosane] | 9.92 ± 0.359 | 6.92 ± 0.263 | 0.624 ± 0.039 | 0.668 ± 0.041 | 0.146 ± 0.005 | 0.145 ± 0.005 | 0.142 ± 0.005 | 43.5 ± 0.5 | 315.6 ± 0.8 |  |  |  |  | thermal conductivity ([2]; 307.9 K, Crystal 2): 0.637 ± 0.04 W/m/K; thermal conductivity ([2]; 318.1 K, Liquid): 0.151 ± 0.005 W/m/K; thermal conductivity ([2]; 323 K, Liquid): 0.15 ± 0.005 W/m/K; thermal conductivity ([2]; 328.1 K, Liquid): 0.148 ± 0.005 W/m/K; thermal conductivity ([2]; 343 K, Liquid): 0.144 ± 0.005 W/m/K; thermal conductivity ([2]; 347.9 K, Liquid): 0.143 ± 0.005 W/m/K |
| CCCCCCCCCCCC [dodecane] |  |  |  |  |  | 0.13 ± 0.005 |  |  |  |  |  |  |  | thermal conductivity ([2]; 318.2 K, Liquid): 0.135 ± 0.004 W/m/K; thermal conductivity ([2]; 323.2 K, Liquid): 0.134 ± 0.005 W/m/K; thermal conductivity ([2]; 328.1 K, Liquid): 0.133 ± 0.005 W/m/K; thermal conductivity ([2]; 333.1 K, Liquid): 0.131 ± 0.005 W/m/K; thermal conductivity ([2]; 343.2 K, Liquid): 0.128 ± 0.005 W/m/K; thermal conductivity ([2]; 347.9 K, Liquid): 0.127 ± 0.005 W/m/K; thermal conductivity ([2]; 352.8 K, Liquid): 0.127 ± 0.005 W/m/K |
| CCCCCCCCCCCCCCCCCCCCCCCCCCCCCCCC [dotriacontane] | 18 ± 0.693 | 9.3 ± 0.359 |  |  |  |  |  | 69 ± 0.5 | 338.1 ± 0.8 | 0.574 ± 0.034 | 0.574 ± 0.036 | 0.152 ± 0.006 |  | thermal conductivity ([2]; 307.5 K, Crystal 2): 0.585 ± 0.036 W/m/K; thermal conductivity ([2]; 312.8 K, Crystal 2): 0.607 ± 0.038 W/m/K; thermal conductivity ([2]; 318 K, Crystal 2): 0.585 ± 0.037 W/m/K; thermal conductivity ([2]; 323.1 K, Crystal 2): 0.561 ± 0.035 W/m/K; thermal conductivity ([2]; 328 K, Crystal 2): 0.588 ± 0.036 W/m/K; thermal conductivity ([2]; 332.6 K, Crystal 2): 0.621 ± 0.038 W/m/K; thermal conductivity ([2]; 343 K, Liquid): 0.153 ± 0.006 W/m/K; thermal conductivity ([2]; 353.1 K, Liquid): 0.149 ± 0.005 W/m/K |
| CCCCCCCCCCCCCCCCCCCCCCCCCC [hexacosane] | 13.2 ± 0.837 | 7.37 ± 0.287 | 0.499 ± 0.031 | 0.524 ± 0.031 | 0.151 ± 0.005 |  |  | 55.7 ± 0.5 | 325.7 ± 0.8 |  |  | 0.148 ± 0.005 | 0.149 ± 0.006 | thermal conductivity ([2]; 307.8 K, Crystal 2): 0.484 ± 0.032 W/m/K; thermal conductivity ([2]; 312.7 K, Crystal 2): 0.513 ± 0.032 W/m/K; thermal conductivity ([2]; 318.5 K, Crystal 2): 0.574 ± 0.036 W/m/K; thermal conductivity ([2]; 337.8 K, Liquid): 0.15 ± 0.005 W/m/K; thermal conductivity ([2]; 353.1 K, Liquid): 0.147 ± 0.005 W/m/K |
| CCCCCCCCCCCCCCCCCCCCCCCCCCCC [octacosane] | 15.1 ± 0.55 | 8.39 ± 0.311 |  | 0.489 ± 0.03 |  | 0.152 ± 0.005 | 0.149 ± 0.005 | 60.2 ± 1 | 330.4 ± 0.8 | 0.514 ± 0.031 |  | 0.149 ± 0.005 | 0.151 ± 0.005 | thermal conductivity ([2]; 308 K, Crystal 2): 0.471 ± 0.029 W/m/K; thermal conductivity ([2]; 312.7 K, Crystal 2): 0.469 ± 0.028 W/m/K; thermal conductivity ([2]; 318.6 K, Crystal 2): 0.473 ± 0.031 W/m/K; thermal conductivity ([2]; 323.4 K, Crystal 2): 0.505 ± 0.032 W/m/K |
| CCCCCCCCCCCCCCCCCCCCCCCC [tetracosane] | 12.2 ± 1.27 | 7.41 ± 0.43 | 0.594 ± 0.036 |  | 0.149 ± 0.005 |  | 0.145 ± 0.006 | 50.0 ± 0.5 | 320.8 ± 0.8 |  | 0.545 ± 0.033 | 0.146 ± 0.005 | 0.146 ± 0.005 | thermal conductivity ([2]; 307.7 K, Crystal 2): 0.545 ± 0.033 W/m/K; thermal conductivity ([2]; 312.9 K, Crystal 2): 0.603 ± 0.036 W/m/K; thermal conductivity ([2]; 323.1 K, Liquid): 0.152 ± 0.005 W/m/K; thermal conductivity ([2]; 328 K, Liquid): 0.151 ± 0.005 W/m/K; thermal conductivity ([2]; 337.6 K, Liquid): 0.148 ± 0.005 W/m/K |
| CCCCCCCCCCCCCCCCCCCCCCCCCCCCCC [triacontane] | 16.7 ± 0.598 | 9.03 ± 0.335 |  |  |  |  |  | 64.0 ± 1.5 | 334.2 ± 0.8 | 0.616 ± 0.038 | 0.603 ± 0.036 | 0.152 ± 0.005 | 0.153 ± 0.005 | thermal conductivity ([2]; 307.8 K, Crystal 2): 0.556 ± 0.034 W/m/K; thermal conductivity ([2]; 312.6 K, Crystal 2): 0.612 ± 0.037 W/m/K; thermal conductivity ([2]; 318.5 K, Crystal 2): 0.559 ± 0.035 W/m/K; thermal conductivity ([2]; 323.3 K, Crystal 2): 0.514 ± 0.033 W/m/K; thermal conductivity ([2]; 328 K, Crystal 2): 0.536 ± 0.034 W/m/K; thermal conductivity ([2]; 353.5 K, Liquid): 0.151 ± 0.005 W/m/K |
